Experimental data taken from PubChem BioAssay (NCI).
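Five compound concentrations were applied to cells in 96-well plates for 48 hours; endpoints were derived by simple linear interpolation of the resulting dose-response curve. Definition used: TGI = concentration required for complete inhibition of growth.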

Tests used:
Assay in all cases: inhibition of tumour cell growth, NCI panel, 48 h
MDA-MB-231 breast = tested on: MDA-MB-231 breast
NCI-H23 lung = tested on: NCI-H23 lung
LOX IMVI melanoma = tested on: LOX IMVI melanoma
T-47D breast = tested on: T-47D breast
CAKI-1 renal = tested on: CAKI-1 renal
HT29 colon = tested on: HT29 colon
A498 renal = tested on: A498 renal
NCI-H226 lung = tested on: NCI-H226 lung
MCF7 breast = tested on: MCF7 breast
SF-295 CNS = tested on: SF-295 CNS
HCT-116 colon = tested on: HCT-116 colon
SF-539 CNS = tested on: SF-539 CNS
BT-549 breast = tested on: BT-549 breast
RXF 393 renal = tested on: RXF 393 renal
OVCAR-5 ovarian = tested on: OVCAR-5 ovarian
DU-145 prostate = tested on: DU-145 prostate
SN12C renal = tested on: SN12C renal
M14 melanoma = tested on: M14 melanoma
HOP-92 NSCLC = tested on: HOP-92 NSCLC
OVCAR-8 ovarian = tested on: OVCAR-8 ovarian
UACC-257 melanoma = tested on: UACC-257 melanoma
HL-60(TB) leukemia = tested on: HL-60(TB) leukemia
U251 CNS = tested on: U251 CNS
SK-OV-3 ovarian = tested on: SK-OV-3 ovarian
SW-620 colon = tested on: SW-620 colon
HS 578T breast = tested on: HS 578T breast
RPMI-8226 leukemia = tested on: RPMI-8226 leukemia
HCT-15 colon = tested on: HCT-15 colon
NCI/ADR-RES ovarian = tested on: NCI/ADR-RES ovarian
MDA-MB-435 = tested on: MDA-MB-435
MDA-N = tested on: MDA-N
MALME-3M melanoma = tested on: MALME-3M melanoma
UO-31 renal = tested on: UO-31 renal
SNB-75 CNS = tested on: SNB-75 CNS
SK-MEL-2 melanoma = tested on: SK-MEL-2 melanoma
MOLT-4 leukemia = tested on: MOLT-4 leukemia
HOP-62 NSCLC = tested on: HOP-62 NSCLC
EKVX NSCLC = tested on: EKVX NSCLC
SK-MEL-5 melanoma = tested on: SK-MEL-5 melanoma
SF-268 CNS = tested on: SF-268 CNS
K-562 leukemia = tested on: K-562 leukemia
IGROV1 ovarian = tested on: IGROV1 ovarian
A549 NSCLC = tested on: A549 NSCLC
UACC-62 melanoma = tested on: UACC-62 melanoma
OVCAR-4 ovarian = tested on: OVCAR-4 ovarian
SK-MEL-28 melanoma = tested on: SK-MEL-28 melanoma
OVCAR-3 ovarian = tested on: OVCAR-3 ovarian
HCC-2998 colon = tested on: HCC-2998 colon
TK-10 renal = tested on: TK-10 renal
PC-3 prostate = tested on: PC-3 prostate
SNB-19 CNS = tested on: SNB-19 CNS
ACHN renal = tested on: ACHN renal
NCI-H460 lung = tested on: NCI-H460 lung
COLO 205 colon = tested on: COLO 205 colon
KM12 colon = tested on: KM12 colon
CCRF-CEM leukemia = tested on: CCRF-CEM leukemia
786-0 renal = tested on: 786-0 renal

Q: Which results are given for CCCCCCSC[C@H](OC(C)=O)[C@@H](OC(C)=O)[C@@H](OC(C)=O)[C@@H](COC(C)=O)OC(C)=O?
A: TGI (MDA-MB-231 breast): > 100 µM; TGI (NCI-H23 lung): > 100 µM; TGI (LOX IMVI melanoma): > 100 µM; TGI (T-47D breast): > 100 µM; TGI (CAKI-1 renal): > 100 µM; TGI (HT29 colon): > 100 µM; TGI (A498 renal): > 100 µM; TGI (NCI-H226 lung): > 100 µM; TGI (MCF7 breast): > 100 µM; TGI (SF-295 CNS): > 100 µM; TGI (HCT-116 colon): > 100 µM; TGI (SF-539 CNS): > 100 µM; TGI (BT-549 breast): > 100 µM; TGI (RXF 393 renal): > 100 µM; TGI (OVCAR-5 ovarian): > 100 µM; TGI (DU-145 prostate): > 100 µM; TGI (SN12C renal): > 100 µM; TGI (M14 melanoma): > 100 µM; TGI (HOP-92 NSCLC): > 100 µM; TGI (OVCAR-8 ovarian): > 100 µM; TGI (UACC-257 melanoma): > 100 µM; TGI (HL-60(TB) leukemia): > 100 µM; TGI (U251 CNS): > 100 µM; TGI (SK-OV-3 ovarian): > 100 µM; TGI (SW-620 colon): > 100 µM; TGI (HS 578T breast): > 100 µM; TGI (RPMI-8226 leukemia): 50.1 µM; TGI (HCT-15 colon): > 100 µM; TGI (NCI/ADR-RES ovarian): > 100 µM; TGI (MDA-MB-435): > 100 µM; TGI (MDA-N): > 100 µM; TGI (MALME-3M melanoma): > 100 µM; TGI (UO-31 renal): > 100 µM; TGI (SNB-75 CNS): > 100 µM; TGI (SK-MEL-2 melanoma): > 100 µM; TGI (MOLT-4 leukemia): 90.5 µM; TGI (HOP-62 NSCLC): > 100 µM; TGI (EKVX NSCLC): > 100 µM; TGI (SK-MEL-5 melanoma): 62.1 µM; TGI (SF-268 CNS): > 100 µM; TGI (K-562 leukemia): > 100 µM; TGI (IGROV1 ovarian): > 100 µM; TGI (A549 NSCLC): > 100 µM; TGI (UACC-62 melanoma): > 100 µM; TGI (OVCAR-4 ovarian): > 100 µM; TGI (SK-MEL-28 melanoma): > 100 µM; TGI (OVCAR-3 ovarian): > 100 µM; TGI (HCC-2998 colon): > 100 µM; TGI (TK-10 renal): > 100 µM; TGI (PC-3 prostate): 99.6 µM; TGI (SNB-19 CNS): > 100 µM; TGI (ACHN renal): > 100 µM; TGI (NCI-H460 lung): > 100 µM; TGI (COLO 205 colon): > 100 µM; TGI (KM12 colon): > 100 µM; TGI (CCRF-CEM leukemia): > 100 µM; TGI (786-0 renal): > 100 µM
